Measurements from US20160101125A1, “COMPOSITIONS FOR USE IN CARTILAGE BREAKDOWN” (NESTEC S.A., priority 2013, published 2016).

Key:
Type in all cases: cell-based, Bos Taurus
Settings in all cases: 1.5 μM, 3 days
MMP-13 mRNA = MMP-13 mRNA expression in bovine primary chondrocytes in alginate beads (real-time PCR, relative to GAPDH)
ADAMTS-5 mRNA = ADAMTS-5 mRNA expression in bovine primary chondrocytes in alginate beads (real-time PCR, relative to GAPDH)
COX-2 mRNA = COX-2 mRNA expression in bovine primary chondrocytes in alginate beads (real-time PCR, relative to GAPDH)
Experimental: The foot of a young cow was washed to remove soil. The skin was removed from the foot. The articulation was opened transversally. Intra articular ligaments were transected. The opened articulation was washed with phosphate buffered saline. With a scalpel blade, full thickness slices of cartilage were dissected out and collected in DMEM high glucose with 10 mM hepes and 1% Penicillin-Streptomycin. Slices of cartilage were washed in DMEM high glucose with 10 mM hepes and 1% Penicillin-Streptomycin.
Cartilage was then digested successively by 0.5 mg/ml of hyluronidase during 30 minutes, 1.0 mg/ml of pronase E during 60 minutes and 1.0 mg/ml of collagenase overnight under slow agitation. […]
Total RNA was isolated from pool of 40 beads and isolated using RNeasy kit from Qiagen. cDNA was obtained by reverse transcription of RNA with the Primescript 1st strand cDNA Synthesis kit from Takara. mRNA expression of ADAMTS-5, COX-2, MMP-13 and GAPDH were quantified in real-time PCR (SYBR Green)
FIGS. 1 to 3 show mRNA expression of ADAMTS-5, COX-2 and MMP-13 normalized by GAPDH mRNA expression after 3 days of culture. Data were expressed as fold change in gene expression compared to negative control (cells cultured in complete medium). Results were calculated according to the 2^−ΔΔCT method.
IL1a interleukin-1 alpha 10 ng/ml Data were expressed as median±S.E. Median (2 experiments of 3 replicates each). […]

[1] = absence of IL1a (normal conditions)
[2] = presence of IL1a 10 ng/ml (disease conditions)

O=c1c(O)c(-c2ccc(O)c(O)c2)oc2cc(O)cc(O)c12 [QRC, quercetin]
decrease: MMP-13 mRNA expression relative to GAPDH (MMP-13 mRNA; [1]) | MMP-13 mRNA expression relative to GAPDH (MMP-13 mRNA; [2]) | ADAMTS-5 mRNA expression relative to GAPDH (ADAMTS-5 mRNA; [1]) | ADAMTS-5 mRNA expression relative to GAPDH (ADAMTS-5 mRNA; [2]) | COX-2 mRNA expression relative to GAPDH (COX-2 mRNA; [2])
reduce: COX-2 mRNA expression relative to GAPDH (COX-2 mRNA; [1])
